From ChEMBL document CHEMBL4507293 (2021)

Tests used:
[1] = target: Activin receptor type-2A (Homo sapiens) (UniProt P27037); details: Compound concentration 100.0 nM
[2] = target: Calcium/calmodulin-dependent protein kinase kinase 2 (Homo sapiens) (UniProt Q96RR4); details: Compound concentration 100.0 nM
[3] = target: Cyclin-dependent kinase 11B (Homo sapiens) (UniProt P21127); details: Compound concentration 100.0 nM
[4] = system: Epidermal growth factor receptor (Homo sapiens), P00533 [UNDEFINED MUTATION]; details: Compound concentration 100.0 nM
[5] = target: Ephrin type-A receptor 1 (Homo sapiens) (UniProt P21709); details: Compound concentration 100.0 nM
[6] = target: Ephrin type-A receptor 3 (Homo sapiens) (UniProt P29320); details: Compound concentration 100.0 nM
[7] = target: Ephrin type-B receptor 2 (Homo sapiens) (UniProt P29323); details: Compound concentration 100.0 nM
[8] = target: Mitogen-activated protein kinase 15 (Homo sapiens) (UniProt Q8TD08); details: Compound concentration 100.0 nM
[9] = target: Mitogen-activated protein kinase 9 (Homo sapiens) (UniProt P45984); details: Compound concentration 100.0 nM
[10] = target: Tyrosine-protein kinase Lck (Homo sapiens) (UniProt P06239); details: Compound concentration 100.0 nM
[11] = target: Serine/threonine-protein kinase Nek4 (Homo sapiens) (UniProt P51957); details: Compound concentration 100.0 nM
[12] = target: Cyclin-dependent kinase 16 (Homo sapiens) (UniProt Q00536); details: Compound concentration 100.0 nM
[13] = target: Phosphatidylinositol 5-phosphate 4-kinase type-2 beta (Homo sapiens) (UniProt P78356); details: Compound concentration 100.0 nM
[14] = target: Serine/threonine-protein kinase SIK2 (Homo sapiens) (UniProt Q9H0K1); details: Compound concentration 100.0 nM
[15] = target: Non-receptor tyrosine-protein kinase TNK1 (Homo sapiens) (UniProt Q13470); details: Compound concentration 100.0 nM
[16] = target: Serine/threonine-protein kinase ULK2 (Homo sapiens) (UniProt Q8IYT8); details: Compound concentration 100.0 nM
[17] = target: 5-hydroxytryptamine receptor 6 (Homo sapiens) (UniProt P50406); details: Compound concentration 10.0 uM
[18] = target: Delta-type opioid receptor (Homo sapiens) (UniProt P41143); details: Compound concentration 10.0 uM
[19] = target: T1, Muscarinic acetylcholine receptor M1 (Homo sapiens) (UniProt P11229); details: Compound concentration 10.0 uM
T1 sequence (whole entry): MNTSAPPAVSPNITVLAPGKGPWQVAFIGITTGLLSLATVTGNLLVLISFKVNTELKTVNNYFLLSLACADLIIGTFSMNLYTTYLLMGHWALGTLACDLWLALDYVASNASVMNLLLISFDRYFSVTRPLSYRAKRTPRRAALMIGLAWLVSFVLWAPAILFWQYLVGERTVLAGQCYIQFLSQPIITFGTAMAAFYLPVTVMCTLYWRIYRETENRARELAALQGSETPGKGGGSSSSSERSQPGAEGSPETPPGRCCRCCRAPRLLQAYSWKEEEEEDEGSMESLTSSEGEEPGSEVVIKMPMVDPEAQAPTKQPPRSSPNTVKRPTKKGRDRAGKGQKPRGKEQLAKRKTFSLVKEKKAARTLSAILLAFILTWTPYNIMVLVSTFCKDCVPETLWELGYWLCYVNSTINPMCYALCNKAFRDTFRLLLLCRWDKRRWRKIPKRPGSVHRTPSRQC

[20] = target: Beta-3 adrenergic receptor (Homo sapiens) (UniProt P13945); details: Compound concentration 10.0 uM
[21] = Inhibition of Atrial Natriuretic Factor (ANF) at 10 µM in the Eurofins-Panlabs radioligand binding assay (Eurofins_assay_211000); details: Cavia porcellus; Compound concentration 10 uM; Assay protocol publication PMID: 2408776; Detection method Radioligand Binding; Incubation temperature 4 °C; Incubation time 60 min; Ligand Bmax 0.013 pM/ mg protein; Ligand Kd 0.14 nM; Ligand [125I] ANF (rat); Ligand concentration 0.016 nM; Ligand specific binding 78 %; Non-specific ligand with concentration 0.1 µM ANF (rat); Reference compound ANF (rat); Source of …
[22] = target: Adenosine Transporter (Cavia porcellus) (UniProt H0V4R7+H0UUG1+H0V3Z5); assay: (§1) Inhibition of Transporter, Adenosine at compound concentration of 10.0 uM in the Eurofins-Panlabs radioligand binding assay (Eurofins_assay_202000); type: protein assay; design: ligand concentration 0.5 nM, non-specific ligand with concentration 5 uM Nitrobenzylthioinosine, incubation time 30 min, incubation temperature 25 C
Adenosine Transporter = Adenosine Transporter (Cavia porcellus, UniProt H0V4R7+H0UUG1+H0V3Z5); assay: as §1; type: protein assay; design: ligand concentration 0.5 nM, non-specific ligand with concentration 5 uM Nitrobenzylthioinosine, incubation time 30 min, incubation temperature 25 C
Caspase-8 (Homo sapiens) = Caspase-8 (Homo sapiens) (UniProt Q14790); assay: Peptidase, CASP8 (Caspase 8) Eurofins-Panlabs enzyme assay; details: Compound concentration 10.0 uM
[23] = target: Prostaglandin E2 receptor EP3 subtype (Homo sapiens) (UniProt P43115); assay: Prostanoid EP3 Eurofins-Panlabs radioligand binding assay; design: ligand concentration 0.5 nM, non-specific ligand with concentration 10 µM Prostaglandin EŽ2 (PGE2), incubation time 60 min, incubation temperature 25 °C; details: Compound concentration 10.0 uM
[24] = target: Vasopressin V2 receptor (Homo sapiens) (UniProt P30518); assay: Inhibition of Vasopressin V2 at 10 µM in the Eurofins-Panlabs radioligand binding assay (Eurofins_assay_287610); design: ligand concentration 4 nM; details: Compound concentration 10.0 uM
[25] = target: Sodium-dependent noradrenaline transporter (Homo sapiens) (UniProt P23975); details: Compound concentration 10.0 uM
[26] = target: T2, Alpha-2B adrenergic receptor (Homo sapiens) (UniProt P18089); details: Compound concentration 10.0 uM
T2 sequence (whole entry): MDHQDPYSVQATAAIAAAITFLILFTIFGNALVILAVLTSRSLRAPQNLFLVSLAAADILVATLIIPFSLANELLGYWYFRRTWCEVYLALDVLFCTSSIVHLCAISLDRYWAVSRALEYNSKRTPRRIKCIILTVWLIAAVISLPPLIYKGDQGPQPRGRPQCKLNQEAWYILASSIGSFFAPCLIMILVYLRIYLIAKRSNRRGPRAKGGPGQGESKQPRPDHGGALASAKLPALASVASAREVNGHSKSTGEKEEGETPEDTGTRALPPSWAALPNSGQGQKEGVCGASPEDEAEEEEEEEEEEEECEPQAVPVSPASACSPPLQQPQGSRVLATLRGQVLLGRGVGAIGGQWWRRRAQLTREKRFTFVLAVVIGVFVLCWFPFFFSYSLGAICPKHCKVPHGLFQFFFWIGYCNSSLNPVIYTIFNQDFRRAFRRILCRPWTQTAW

Chain of Cyclin-dependent kinase 16 (Homo sapiens) (Q00536 whole entry): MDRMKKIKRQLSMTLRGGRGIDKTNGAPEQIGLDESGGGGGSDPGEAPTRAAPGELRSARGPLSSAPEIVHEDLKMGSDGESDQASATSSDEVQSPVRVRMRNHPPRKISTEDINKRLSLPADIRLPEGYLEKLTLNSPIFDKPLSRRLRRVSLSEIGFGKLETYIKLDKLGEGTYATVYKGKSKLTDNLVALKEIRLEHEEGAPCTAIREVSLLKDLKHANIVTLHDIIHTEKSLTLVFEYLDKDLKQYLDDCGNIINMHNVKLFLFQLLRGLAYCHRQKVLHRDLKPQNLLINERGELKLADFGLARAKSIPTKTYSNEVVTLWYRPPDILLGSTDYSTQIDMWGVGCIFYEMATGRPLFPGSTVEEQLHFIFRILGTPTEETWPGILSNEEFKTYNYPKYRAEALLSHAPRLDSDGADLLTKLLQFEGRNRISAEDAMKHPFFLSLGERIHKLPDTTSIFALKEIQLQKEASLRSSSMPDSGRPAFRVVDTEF
Chain of Serine/threonine-protein kinase SIK2 (Homo sapiens) (Q9H0K1 whole entry, looked up): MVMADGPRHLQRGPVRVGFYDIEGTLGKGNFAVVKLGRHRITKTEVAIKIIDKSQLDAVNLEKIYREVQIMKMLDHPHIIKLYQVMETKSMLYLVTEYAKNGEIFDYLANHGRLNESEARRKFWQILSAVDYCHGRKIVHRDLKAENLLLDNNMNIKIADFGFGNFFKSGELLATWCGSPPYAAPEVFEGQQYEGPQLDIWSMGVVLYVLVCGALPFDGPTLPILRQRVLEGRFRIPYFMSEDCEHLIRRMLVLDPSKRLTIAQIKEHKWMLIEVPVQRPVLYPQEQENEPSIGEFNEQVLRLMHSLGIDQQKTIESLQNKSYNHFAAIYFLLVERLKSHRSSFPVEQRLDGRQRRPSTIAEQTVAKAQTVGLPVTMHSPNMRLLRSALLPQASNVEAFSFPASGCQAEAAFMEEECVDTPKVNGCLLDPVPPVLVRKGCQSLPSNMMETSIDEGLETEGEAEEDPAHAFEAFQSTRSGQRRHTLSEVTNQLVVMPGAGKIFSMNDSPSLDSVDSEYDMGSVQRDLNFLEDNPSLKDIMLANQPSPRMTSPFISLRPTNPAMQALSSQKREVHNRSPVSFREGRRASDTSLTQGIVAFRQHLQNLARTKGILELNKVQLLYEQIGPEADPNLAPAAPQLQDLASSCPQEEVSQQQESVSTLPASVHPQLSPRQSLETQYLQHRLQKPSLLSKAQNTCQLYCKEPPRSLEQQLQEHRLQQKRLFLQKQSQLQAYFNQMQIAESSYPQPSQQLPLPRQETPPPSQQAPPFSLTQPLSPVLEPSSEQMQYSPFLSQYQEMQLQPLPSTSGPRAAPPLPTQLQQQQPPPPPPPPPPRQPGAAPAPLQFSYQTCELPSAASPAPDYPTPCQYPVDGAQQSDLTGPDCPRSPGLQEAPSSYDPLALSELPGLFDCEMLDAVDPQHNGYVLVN
Chain of Ephrin type-B receptor 2 (Homo sapiens) (P29323 whole entry): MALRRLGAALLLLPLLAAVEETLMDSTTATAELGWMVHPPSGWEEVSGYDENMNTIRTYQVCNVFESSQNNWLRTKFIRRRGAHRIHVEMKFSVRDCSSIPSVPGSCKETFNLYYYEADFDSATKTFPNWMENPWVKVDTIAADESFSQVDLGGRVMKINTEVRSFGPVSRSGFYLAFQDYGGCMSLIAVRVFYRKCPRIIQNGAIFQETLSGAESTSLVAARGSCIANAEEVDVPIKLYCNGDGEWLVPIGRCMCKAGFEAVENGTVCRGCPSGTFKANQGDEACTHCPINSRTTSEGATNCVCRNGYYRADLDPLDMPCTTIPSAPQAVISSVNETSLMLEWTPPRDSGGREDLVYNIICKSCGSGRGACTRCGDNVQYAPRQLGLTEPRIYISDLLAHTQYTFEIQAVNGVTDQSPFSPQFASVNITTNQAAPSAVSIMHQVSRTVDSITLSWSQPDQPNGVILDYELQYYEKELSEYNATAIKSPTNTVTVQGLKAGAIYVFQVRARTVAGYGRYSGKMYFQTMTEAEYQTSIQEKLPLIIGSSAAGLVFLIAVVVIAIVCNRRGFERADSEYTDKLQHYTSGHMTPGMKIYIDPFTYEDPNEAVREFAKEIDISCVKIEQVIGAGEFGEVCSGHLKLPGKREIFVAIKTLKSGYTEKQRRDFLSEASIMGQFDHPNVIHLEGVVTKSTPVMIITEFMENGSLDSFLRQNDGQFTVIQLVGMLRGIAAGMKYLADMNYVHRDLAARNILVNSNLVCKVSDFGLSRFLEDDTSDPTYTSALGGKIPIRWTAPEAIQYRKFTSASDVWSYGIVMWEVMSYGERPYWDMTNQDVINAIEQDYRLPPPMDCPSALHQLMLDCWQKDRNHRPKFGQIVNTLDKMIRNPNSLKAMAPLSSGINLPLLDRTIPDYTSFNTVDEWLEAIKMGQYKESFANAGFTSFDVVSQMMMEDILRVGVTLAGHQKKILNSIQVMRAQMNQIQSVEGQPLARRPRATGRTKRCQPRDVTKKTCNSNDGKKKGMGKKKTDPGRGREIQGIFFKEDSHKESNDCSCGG
Chain of Ephrin type-A receptor 3 (Homo sapiens) (P29320 whole entry): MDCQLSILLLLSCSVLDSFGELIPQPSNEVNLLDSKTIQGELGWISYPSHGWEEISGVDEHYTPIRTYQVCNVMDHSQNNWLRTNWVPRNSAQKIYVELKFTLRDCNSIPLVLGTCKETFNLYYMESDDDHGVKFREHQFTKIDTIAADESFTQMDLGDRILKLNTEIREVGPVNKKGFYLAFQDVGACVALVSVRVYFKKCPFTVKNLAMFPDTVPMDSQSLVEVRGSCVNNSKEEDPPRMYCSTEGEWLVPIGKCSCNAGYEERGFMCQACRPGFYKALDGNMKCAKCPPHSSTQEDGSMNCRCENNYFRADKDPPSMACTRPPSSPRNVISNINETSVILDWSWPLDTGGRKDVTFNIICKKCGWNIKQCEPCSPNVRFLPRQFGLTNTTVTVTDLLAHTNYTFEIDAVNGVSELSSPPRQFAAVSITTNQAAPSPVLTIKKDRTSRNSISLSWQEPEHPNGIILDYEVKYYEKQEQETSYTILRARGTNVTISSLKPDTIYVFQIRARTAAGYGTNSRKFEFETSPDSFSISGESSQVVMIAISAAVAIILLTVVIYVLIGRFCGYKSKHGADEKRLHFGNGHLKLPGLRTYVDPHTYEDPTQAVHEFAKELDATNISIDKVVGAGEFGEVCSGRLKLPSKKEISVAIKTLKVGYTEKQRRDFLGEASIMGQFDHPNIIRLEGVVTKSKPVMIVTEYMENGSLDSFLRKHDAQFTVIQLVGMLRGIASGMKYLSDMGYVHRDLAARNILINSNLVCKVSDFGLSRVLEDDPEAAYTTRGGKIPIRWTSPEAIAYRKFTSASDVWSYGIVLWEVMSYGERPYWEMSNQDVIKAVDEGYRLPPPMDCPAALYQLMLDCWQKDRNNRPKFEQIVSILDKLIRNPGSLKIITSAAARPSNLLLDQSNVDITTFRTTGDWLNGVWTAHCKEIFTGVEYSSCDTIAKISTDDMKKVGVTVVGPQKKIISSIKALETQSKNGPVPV
Chain of Serine/threonine-protein kinase ULK2 (Homo sapiens) (Q8IYT8 whole entry): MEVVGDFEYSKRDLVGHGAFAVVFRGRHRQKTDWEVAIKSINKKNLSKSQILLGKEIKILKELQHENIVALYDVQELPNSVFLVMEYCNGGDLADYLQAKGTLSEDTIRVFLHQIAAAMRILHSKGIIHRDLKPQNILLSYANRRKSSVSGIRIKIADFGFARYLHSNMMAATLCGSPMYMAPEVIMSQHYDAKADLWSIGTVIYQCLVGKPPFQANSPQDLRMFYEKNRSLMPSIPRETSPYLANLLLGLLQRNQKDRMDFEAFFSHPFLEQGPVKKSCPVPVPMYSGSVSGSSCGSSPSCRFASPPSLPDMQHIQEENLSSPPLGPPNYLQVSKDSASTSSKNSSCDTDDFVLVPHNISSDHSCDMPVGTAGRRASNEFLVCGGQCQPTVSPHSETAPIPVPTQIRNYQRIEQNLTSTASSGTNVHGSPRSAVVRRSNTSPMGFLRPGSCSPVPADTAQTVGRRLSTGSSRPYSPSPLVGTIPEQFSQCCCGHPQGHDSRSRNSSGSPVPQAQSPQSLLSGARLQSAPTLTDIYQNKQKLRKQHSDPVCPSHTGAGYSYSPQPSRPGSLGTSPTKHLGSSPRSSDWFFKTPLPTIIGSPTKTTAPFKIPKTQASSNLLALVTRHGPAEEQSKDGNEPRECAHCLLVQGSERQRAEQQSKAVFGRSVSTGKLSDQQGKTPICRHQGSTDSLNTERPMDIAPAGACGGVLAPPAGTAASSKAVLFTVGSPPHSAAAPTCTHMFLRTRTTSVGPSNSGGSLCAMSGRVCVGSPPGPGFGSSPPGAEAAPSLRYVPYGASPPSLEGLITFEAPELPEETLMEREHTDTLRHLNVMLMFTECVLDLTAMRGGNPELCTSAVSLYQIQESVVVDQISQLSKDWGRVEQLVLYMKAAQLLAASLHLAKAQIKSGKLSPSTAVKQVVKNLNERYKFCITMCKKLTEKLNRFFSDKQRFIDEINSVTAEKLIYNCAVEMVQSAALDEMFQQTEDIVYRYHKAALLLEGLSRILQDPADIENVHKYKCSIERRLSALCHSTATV
Chain of Delta-type opioid receptor (Homo sapiens) (P41143 whole entry): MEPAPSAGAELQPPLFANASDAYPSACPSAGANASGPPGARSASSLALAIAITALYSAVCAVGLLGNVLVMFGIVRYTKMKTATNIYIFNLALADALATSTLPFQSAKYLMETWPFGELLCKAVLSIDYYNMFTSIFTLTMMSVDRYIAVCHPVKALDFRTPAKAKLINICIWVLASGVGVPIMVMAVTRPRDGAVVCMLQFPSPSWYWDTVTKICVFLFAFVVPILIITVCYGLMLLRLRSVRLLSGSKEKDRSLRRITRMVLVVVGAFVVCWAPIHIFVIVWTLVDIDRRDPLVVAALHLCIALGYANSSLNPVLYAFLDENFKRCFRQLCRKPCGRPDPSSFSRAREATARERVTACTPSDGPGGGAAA

CC(C)CC(=O)N1CCc2nc(-c3ccc(Br)cc3)nc(N(C)Cc3ccccc3)c2C1 [THPP-1-NC]
residual activity [1]: 97% | residual activity [2]: 100% | residual activity [3]: 100% | residual activity [4]: 100% | residual activity [5]: 100% | residual activity [6]: 100% | residual activity [7]: 80% | residual activity [8]: 100% | residual activity [9]: 72% | residual activity [10]: 100% | residual activity [11]: 100% | residual activity [12]: 100% | residual activity [13]: 61% | residual activity [14]: 100% | residual activity [15]: 100% | residual activity [16]: 89% | inhibition [17]: 0.81% | inhibition [18]: 8.22% | inhibition [19]: 4.18% | inhibition [20]: 12.3%

COCCOc1nc(-c2ccc(Cl)nc2)nc2c1CN(C(=O)c1ncn3ccccc13)CC2 [THPP-1]
inhibition at 10 µM [21]: 0% (not active) | inhibition ([22]; Compound concentration 0.01 uM): -6% | inhibition ([22]; Compound concentration 0.1 uM): 21% | inhibition ([22]; Compound concentration 1.0 uM): 40% | inhibition ([22]; Compound concentration 10.0 uM): 75% | IC50 (Adenosine Transporter): 1610 nM | Ki (Adenosine Transporter): 550 nM | inhibition (Caspase-8 (Homo sapiens)): -3% | inhibition [23]: -1% | inhibition [24]: -2% | residual activity [1]: 98% | residual activity [2]: 100% | residual activity [3]: 100% | residual activity [4]: 100% | residual activity [5]: 100% | residual activity [6]: 96% | residual activity [7]: 79% | residual activity [8]: 100% | residual activity [9]: 76% | residual activity [10]: 100% | residual activity [11]: 100% | residual activity [12]: 100% | residual activity [13]: 59% | residual activity [14]: 100% | residual activity [15]: 100% | residual activity [16]: 100% | inhibition [17]: -4.55% | inhibition [18]: 6.52% | inhibition [19]: -4.03% | inhibition [20]: 1.51% | inhibition [25]: 3% | inhibition [26]: 1%
